Measured values as given in PubChem BioAssay (NCI).
Values joined by “and” are separate entries in the source; they are usually repeats but may differ in a detail not shown here. Identical values can stand only once.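 Each compound was tested at five concentrations against cells in 96-well plates for 48 hours. Abbreviation: GI50, concentration required for 50% inhibition of growth. At the TGI there is no net growth.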

Tests used:
Test in all cases: NCI tumour cell line growth inhibition, 48 h
SF-268 CNS = system: SF-268 CNS
K-562 leukemia = system: K-562 leukemia
UO-31 renal = system: UO-31 renal
SW-620 colon = system: SW-620 colon
MOLT-4 leukemia = system: MOLT-4 leukemia
A498 renal = system: A498 renal
RXF 393 renal = system: RXF 393 renal
LOX IMVI melanoma = system: LOX IMVI melanoma
NCI-H23 lung = system: NCI-H23 lung
NCI-H460 lung = system: NCI-H460 lung

| Structure (SMILES) | GI50 (SF-268 CNS) | TGI (SF-268 CNS) | GI50 (K-562 leukemia) | TGI (K-562 leukemia) | GI50 (UO-31 renal) | TGI (UO-31 renal) | GI50 (SW-620 colon) | TGI (SW-620 colon) | GI50 (MOLT-4 leukemia) | TGI (MOLT-4 leukemia) | GI50 (A498 renal) | TGI (A498 renal) | GI50 (RXF 393 renal) | TGI (RXF 393 renal) | GI50 (LOX IMVI melanoma) | TGI (LOX IMVI melanoma) | GI50 (NCI-H23 lung) | TGI (NCI-H23 lung) | GI50 (NCI-H460 lung) | TGI (NCI-H460 lung) |
| --- | --- | --- | --- | --- | --- | --- | --- | --- | --- | --- | --- | --- | --- | --- | --- | --- | --- | --- | --- | --- |
| C/C(=C\COc1c2c(cc3c1CCO3)OC1(C=C2)OC(CC/C(C)=C/COc2c3ccoc3cc3oc(=O)ccc23)C(C)(C)O1)CCC(O)C(C)(C)O (stereo not given) | 21.1 µM | > 100 µM | 3.82 µM | > 100 µM | 25.7 µM | > 100 µM | 62.3 µM | > 100 µM | 4.76 µM | 53.1 µM | 32.8 µM | > 100 µM | 79.8 µM | > 100 µM | 28.2 µM | > 100 µM | 33.7 µM | > 100 µM | 9.65 µM | > 100 µM |
| O=C(NC1C2CC3CC(C2)CC1C3)c1cc(/C=C/c2ccccc2)[nH]c(=S)n1 (stereo not given) | – | > 100 µM | – | > 100 µM | – | > 100 µM | – | > 100 µM | – | > 100 µM | – | > 100 µM | – | > 100 µM | – | > 100 µM | – | > 100 µM | – | > 100 µM |
| CCc1ccc2c(c1)N(CCO)C1=C(C(=O)OC1)C2c1cccc(Cl)c1 (stereo not given) | 0.975 µM | 17.2 µM | 0.485 µM | 23.9 µM | 2.52 µM | 20.9 µM | 0.416 µM | 21.7 µM | 1.78 µM | 48.5 µM | 0.36 µM | 11.4 µM | 0.378 µM | 3.57 µM | 0.684 µM | 17.7 µM | 0.923 µM | 20.9 µM | 0.393 µM | 12.5 µM |
| CCc1cc2c(cc1N1CCC(N3CCOCC3)CC1)C(C)(C)c1[nH]c3cc(C#N)ccc3c1C2=O | 1.57 µM and 1.54 µM and 1.92 µM | 4.02 µM and 3.97 µM and 5.47 µM | 3.76 µM and 2.12 µM and 1.94 µM | > 41.9 µM and 13.9 µM and > 10 µM | 1.23 µM and 1.13 µM and 1 µM | 3.12 µM and 2.75 µM and 2.72 µM | 0.924 µM and 1.26 µM and 1.08 µM | > 21.8 µM and 22 µM and > 10 µM | 1.57 µM and 0.973 µM and 1.38 µM | > 100 µM and 14.7 µM and > 10 µM | 0.817 µM and 0.867 µM and 1.59 µM | 4.02 µM and 4.95 µM and > 10 µM | 1.5 µM and 1.53 µM | 3.47 µM and 3.78 µM and 3.84 µM | 1.63 µM and 1.73 µM and 1.52 µM | 6.38 µM and 5.47 µM and 4.19 µM | 2.8 µM and 3.45 µM and 5.94 µM | 38.6 µM and 20 µM and > 10 µM | 1.47 µM and 1.74 µM and 1.68 µM | 4.03 µM and 4.17 µM and 7.64 µM |
| CC1OC(OC2C(CO)OC(O[C@H]3CC[C@@]4(C)C(=CC[C@H]5[C@@H]6C[C@@H]7O[C@]8(CC[C@@H](C)CN8)[C@@H](C)[C@@H]7[C@@]6(C)CC[C@@H]54)C3)C(O)C2O)C(O)C(O)C1O (stereo not given in full) | – | > 100 µM | – | > 100 µM | – | > 100 µM | – | > 100 µM | – | > 100 µM | – | > 100 µM | – | > 100 µM | – | > 100 µM | – | > 100 µM | – | > 100 µM |
| CCN(CC)CCNc1cc(-c2cccc(OC(F)(F)F)c2)nc2ccc(N3CCCC3)cc12 | 1.98 µM and 1.92 µM and 2.23 µM | 4.18 µM and 3.96 µM and 5.89 µM | 1.36 µM and 1.8 µM and 2.18 µM | 6.14 µM and 5.09 µM and 5.01 µM | 1.23 µM and 1.35 µM and 1.46 µM | 2.5 µM and 2.69 µM and 2.99 µM | 1.67 µM and 1.86 µM and 2.01 µM | 3.25 µM and 3.79 µM and 4.36 µM | 1.84 µM and 1.92 µM and 2.08 µM | 4.7 µM and 4.92 µM and 6.08 µM | 1.61 µM and 1.82 µM and 3.42 µM | 6.15 µM and 3.44 µM and 14.9 µM | 1.51 µM and 1.5 µM and 1.7 µM | 3.03 µM and 3.09 µM and 4.02 µM | 1.56 µM and 1.39 µM and 1.73 µM | 2.96 µM and 2.73 µM and 3.19 µM | 1.82 µM and 1.87 µM and 1.89 µM | 3.65 µM and 3.72 µM | 1.62 µM and 1.7 µM | 3.27 µM and 3.47 µM |
| C=C(CN1CCN(c2cccc(C(F)(F)F)n2)CC1)c1ccc(C(=S)Nc2ccccc2N)cc1 | 8.08 µM | > 100 µM | 1.57 µM | 4.48 µM | 4.14 µM | > 100 µM | 4.07 µM | 72.2 µM | 2.1 µM | 6.4 µM | 2.57 µM | > 100 µM | 3.74 µM | > 100 µM | 3.72 µM | 17.6 µM | 2.81 µM | 8.85 µM | 2.99 µM | 18.8 µM |
| CC1(C)CCC(C)(C)c2c1ccc(O)c2Cc1c(O)ccc2c1C(C)(C)CCC2(C)C | – | 6.75 µM | – | 5.41 µM | – | 4.04 µM | – | 5.05 µM | – | 4.71 µM | – | 3.43 µM | – | 3.47 µM | – | 3.39 µM | – | 4.11 µM | – | 5.77 µM |
| COc1cc(-c2nn(-c3cccc(NC(=O)c4ccc(N5CCOCC5)c(C(F)(F)F)c4)c3)cc2-c2ccncc2)ccc1Cl | 0.559 µM | > 48.1 µM | 0.0555 µM | > 100 µM | 0.322 µM | 8.77 µM | 0.168 µM | > 56.9 µM | 0.669 µM | > 100 µM | 0.103 µM | 0.765 µM | 0.207 µM | 0.809 µM | 0.371 µM | 6.2 µM | 0.826 µM | 34.2 µM | 0.299 µM | > 20.4 µM |
| CCN(CC)CCCC(C)N=c1cc(Nc2cc(=NC(C)CCCN(CC)CC)c3cc(OC)ccc3o2)oc2ccc(OC)cc12 (stereo not given) | 2.15 µM | 8.72 µM | 1.19 µM | 4.76 µM | 0.874 µM | 4.9 µM | 0.672 µM | 3.04 µM | 0.725 µM | 2.93 µM | 1.15 µM | 7.83 µM | 0.528 µM | 1.17 µM | 1.02 µM | 2.29 µM | 3.18 µM | 12.7 µM | 0.679 µM | 2.15 µM |
| Cc1cc(O)cc(C)c1/C=C/c1cncc(-c2nn[nH]n2)c1 | > 25 µM | > 25 µM | > 25 µM | > 25 µM | > 25 µM | > 25 µM | > 25 µM | > 25 µM | > 25 µM | > 25 µM | > 25 µM | > 25 µM | > 25 µM | > 25 µM | > 25 µM | > 25 µM | > 25 µM | > 25 µM | > 25 µM | > 25 µM |
| C[C@H](CCCNCCCNCCCN)[C@H]1CC[C@H]2[C@@H]3[C@H](OCCCN)C[C@H]4C[C@H](OCCCN)CC[C@]4(C)[C@H]3C[C@H](OCCCN)[C@]12C | 1.54 µM | 16.1 µM | 0.458 µM | 3.6 µM | 0.913 µM | > 58.2 µM | 0.98 µM | 8.2 µM | 1.09 µM | 8.12 µM | > 100 µM | > 100 µM | 6.29 µM | 46.9 µM | 0.888 µM | 9.41 µM | 1.48 µM | 10.8 µM | 4.72 µM | > 34.7 µM |
| O=c1oc2ccc(-n3c(=O)c4ccccc4c4ccccc4c3=O)cc2c2ccccc12 | – | > 100 µM | – | > 100 µM | – | > 100 µM | – | > 100 µM | – | > 100 µM | – | > 100 µM | – | > 100 µM | – | > 100 µM | – | > 100 µM | – | > 100 µM |
